“And” between values parts separate entries of the source, which are not always exact repeats. Equal entries are not always repeated.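 Values below derive from 48-hour exposures of cells grown in 96-well plates, with endpoints linearly interpolated between the two concentrations bracketing the appropriate inhibition level. Here, GI50 denotes the concentration required for 50% inhibition of growth. TGI marks complete inhibition of growth.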
Assays:
Test in all cases: NCI tumour cell line growth inhibition, 48 h
COLO 205 colon = tested on: COLO 205 colon
MDA-MB-231 breast = tested on: MDA-MB-231 breast
BT-549 breast = tested on: BT-549 breast
NCI-H460 lung = tested on: NCI-H460 lung
SNB-19 CNS = tested on: SNB-19 CNS
OVCAR-5 ovarian = tested on: OVCAR-5 ovarian
UACC-62 melanoma = tested on: UACC-62 melanoma
HCC-2998 colon = tested on: HCC-2998 colon

Structure (SMILES)	TGI (COLO 205 colon) [µM]	TGI (MDA-MB-231 breast) [µM]	TGI (BT-549 breast) [µM]	TGI (NCI-H460 lung) [µM]	TGI (SNB-19 CNS) [µM]	TGI (OVCAR-5 ovarian) [µM]	TGI (UACC-62 melanoma) [µM]	TGI (HCC-2998 colon) [µM]	GI50 (BT-549 breast)	GI50 (SNB-19 CNS)
N=C(N)SCc1nc(-c2ccc(Cl)cc2)no1	38.3	35.9	50.6	> 100	> 100	27.8	24.4	–	–	–
CC1(C)C2CC3C(C)(C2)C31c1cc(Cl)ccc1N (configuration not stated)	33.2	30	30	28.9	33.5	29.4	29.1	28.2	–	–
COc1ccc(C2N(c3ccc(C)c(N=C=O)c3)C(=O)N3C(c4ccc(OC)cc4)N(c4ccc(C)c(N=C=O)c4)C(=O)N23)cc1 (configuration not stated)	> 100	> 100	> 100	> 100	> 100	> 100	–	> 100	–	–
O=C1C(c2ccccc2)=C(c2ccccc2)C1(Cl)Cl	6.4	7.84	6.99	20.8	32.9	20.8	4.13	13.3	–	–
N#Cc1ccc(-c2ccc(Cl)cc2)n(C2OC(CO)C(O)C(O)C2O)c1=S (configuration not stated)	–	> 100	> 100	> 100	> 100	> 100	> 100	> 100	> 100 µM and 24.9 µM	> 100 µM and 26.4 µM
c1ccc2c(c1)nnn2C1CCCCO1 (configuration not stated)	> 100	> 100	> 100	> 100	> 100	> 100	> 100	> 100	–	–
C1=CC2C(C3CN(c4ccccc4)N=C13)C1C3C4C=CC21C=CC43 (configuration not stated)	> 100	> 100	> 100	> 100	> 100	> 100	> 100	> 100	–	–
N#Cc1c(/C=C/c2ccccc2)c2c([nH]c1=S)CCCCC2	> 100	> 100	–	> 100	> 100	> 100	–	> 100	–	–
COc1cc2nc(-c3cccs3)nc(N3CCN(c4ccccc4)CC3)c2cc1OC	> 100	> 100	> 100	> 100	> 100	> 100	> 100	–	–	–
CCCCCCCCCCCC(=O)N(CCCCCCCCC)CC(O)C(O)C(OC1OC(CO)C(O)C(O)C1O)C(O)CO (configuration not stated)	36.9	43.2	36.9	35.6	40.4	49.3	34.1	32	–	–
CCOc1ccccc1N=NC1C(=O)N(C(=O)CC(=O)Nc2ccccc2C)N=C1C (configuration not stated)	> 100	> 100	> 100	> 100	–	> 100	> 100	> 100	–	–
N#Cc1sc2c(c1OC(=O)c1ccco1)c(=O)n(-c1ccccc1)c(=S)n2-c1ccccc1	61.5	73.8	> 100	> 100	> 100	–	34.1	> 100	–	–
CCC[N+](C)(C)CCCNC(=O)c1c(O)c2ccccc2[nH]c1=O	> 100	> 100	> 100	> 100	–	> 100	> 100	> 100	–	–
CCOC(=O)c1ccc2nc3n(c2c1)C(c1c(F)cccc1F)SC3 (configuration not stated)	> 100	> 100	> 100	> 100	> 100	> 100	> 100	> 100	–	–
OC(CCN1CCN(CCOC(c2ccccc2)c2ccccc2)CC1)c1ccccc1 (configuration not stated)	29.1	33.6	60.5	35.7	88.6	> 100	30.2	28.9	–	–
Cc1ccc(C)n1-c1ccccc1C1C=Cn2c(=O)oc3c(OC(C)C)c(OC(C)C)c(O)c1c32 (configuration not stated)	30.9	78.8	> 100	> 100	> 100	> 100	> 100	> 100	–	–
Cc1cc(N(CCC#N)CCC#N)ccc1/C(N=Nc1ccc(C(=O)O)cc1)=N\NC(=O)c1ccccc1	> 100	> 100	> 100	> 100	> 100	> 100	> 100	> 100	–	–
OCc1ccc2c(c1)CC1(Cc3ccccc3C1)C2	31.2	27.4	24.1	44.6	–	–	60.2	> 100	–	–
O=[N+]([O-])c1c(O)c2nonc2c2nn(-c3ccccc3)nc12	> 100	–	> 100	> 100	> 100	> 100	> 100	> 100	–	–

Source: PubChem BioAssay (NCI)
